Measurements: US4089965A, “Thiazolylphenylguanidines as antirhinovirus agents” (American Cyanamid Company, priority 1977, dated 1978)
≈ marks a conversion by molar mass, not a printed value. Where “and” joins values, the source holds several entries; their conditions need not be identical. Identical values can stand only once.

Assays:
Coxsackievirus B-1 = assay: Plaque assay, minimal inhibitory concentration; assay type: cell-based; conditions: HeLa Cells, inhibiting virus plaque formation by 50%
rhinovirus 32 [1] = assay: Clinical challenge study in volunteers, clinical symptoms and infection; assay type: in vivo, human; conditions: intranasal
Coxsackievirus A-5 = assay: Plaque assay, minimal inhibitory concentration; assay type: cell-based; conditions: HeLa Cells, inhibiting virus plaque formation by 50%
Rhinovirus Serotype 20 = assay: Plaque assay, minimal inhibitory concentration; assay type: cell-based; conditions: Enterovirus; HeLa Cells; inhibiting virus plaque formation by 50%
Rhinovirus Serotype 39 = assay: Plaque assay, minimal inhibitory concentration; assay type: cell-based; conditions: Enterovirus; HeLa Cells; inhibiting virus plaque formation by 50%
Rhinovirus Serotype 23 = assay: Plaque assay, minimal inhibitory concentration; assay type: cell-based; conditions: Enterovirus, inhibiting virus plaque formation by 50%
Rhinovirus Type 45 = assay: Viral sensitivity, filter disc method; assay type: cell-based; conditions: strain Baylor 1; about 50 mcg per disc, HeLa
Description: (§1) In the test for viral sensitivity, by the filter disc method, 5 mg. of 1-(4-phenyl-2-thiazolyl)-3-phenylguanidine was dissolved in 1-2 drops of dimethylsulfoxide and 2.5 ml. of saline. Filter paper discs, when saturated with the solution, absorbed about 50 mcg. of the compound.
(§2) Sensitivity tests were performed by a modification of the method of Herrmann, et al., Proc. Soc. Exp. Biol. & Med., 103, 625 (1960). HeLa monolayers in 150 mm plastic dishes were infected with 1.0 ml. of rhinovirus suspension known to produce destruction of 80-90% of the cells in 4 to 5 days. Following viral adsorption, the cells were overlayed with 30 ml. of Eagle's minimum essential medium containing Noble agar at 0.5%, bovine fetal serum at 2.0%, diethylaminoethyl dextran at 100 mcg/ml. and magnesium chloride at 3 millimoles. Filter discs (1/4 inch Carl Schleicher and Schuell Co., No. 740E), containing about 50 mcg. of 1-(4-phenyl-2-thiazolyl)-3-phenylguanidine, were placed on the solidified surface and the culture plates incubated at 33° C. After 4 to 5 days, the overlay medium was decanted and the cells stained with 0.1% crystal violet in 20% ethanol. A zone of 10 mm or more in which at least two-thirds of the cells were protected from viral cytopathic effects, indicates antiviral activity. The following Table III lists 35 rhinovirus serotypes which were inhibited by this compound.

Rhinovirus Type 13 = assay: Viral sensitivity, filter disc method; assay type: cell-based; conditions: strain 353; about 50 mcg per disc, HeLa
Description: as §1, §2

Rhinovirus Type 12 = assay: Viral sensitivity, filter disc method; assay type: cell-based; conditions: strain 181CV16; about 50 mcg per disc, HeLa
Description: as §1, §2

Coxsackievirus A-22 = assay: Plaque assay, minimal inhibitory concentration; assay type: cell-based; conditions: HeLa Cells, inhibiting virus plaque formation by 50%
Coxsackievirus A-21 = assay: Plaque assay, minimal inhibitory concentration; assay type: cell-based; conditions: HeLa Cells, inhibiting virus plaque formation by 50%
Rhinovirus Serotype 12 = assay: Plaque assay, minimal inhibitory concentration; assay type: cell-based; conditions: Enterovirus; HeLa Cells; inhibiting virus plaque formation by 50%
Rhinovirus Serotype 14 = assay: Plaque assay, minimal inhibitory concentration; assay type: cell-based; conditions: Enterovirus; HeLa Cells; inhibiting virus plaque formation by 50%
Coxsackievirus B-2 = assay: Plaque assay, minimal inhibitory concentration; assay type: cell-based; conditions: HeLa Cells, inhibiting virus plaque formation by 50%
[2] = test system: rhinoviruses and other picornaviruses, including coxsackie and poliovirus; assay type: cell-based
rhinovirus 32 [3] = assay type: in vivo, human; conditions: neutralization test, rhinovirus type 32
Coxsackievirus A-15 = assay: Plaque assay, minimal inhibitory concentration; assay type: cell-based; conditions: HeLa Cells, inhibiting virus plaque formation by 50%
Rhinovirus Serotype 52 = assay: Plaque assay, minimal inhibitory concentration; assay type: cell-based; conditions: Enterovirus; HeLa Cells; inhibiting virus plaque formation by 50%
Rhinovirus strain 23 = assay: Protection of tissue from cytopathic effects (plaque inhibition, filter paper disc or agar overlay); conditions: 33°, 3 to 5 days
Rhinovirus Serotype 1B [4] = assay: Virus Yield Reduction Test; assay type: cell-based; conditions: for Virus yield: HeLa
Coxsackievirus B-5 = assay: Plaque assay, minimal inhibitory concentration; assay type: cell-based; conditions: HeLa Cells, inhibiting virus plaque formation by 50%
Rhinovirus strain 5 = assay: Protection of tissue from cytopathic effects (plaque inhibition, filter paper disc or agar overlay); conditions: 33°, 3 to 5 days
Rhinovirus strain 2 = assay: as above; conditions: 33°, 3 to 5 days
Rhinovirus Serotype 3 = assay: Plaque assay, minimal inhibitory concentration; assay type: cell-based; conditions: Enterovirus; HeLa Cells; inhibiting virus plaque formation by 50%
rhinoviruses = assay: Activity in three human epithelial cell lines; assay type: cell-based, rhinovirus; conditions: Hela, L-132 and Detroit-6
Coxsackievirus A-11 = assay: Plaque assay, minimal inhibitory concentration; assay type: cell-based; conditions: HeLa Cells, inhibiting virus plaque formation by 50%
Rhinovirus Serotype 1B [5] = assay: Plaque assay, minimal inhibitory concentration; assay type: cell-based; conditions: Enterovirus, inhibiting virus plaque formation by 50%
Rhinovirus Serotype 1A = assay: Plaque assay, minimal inhibitory concentration; assay type: cell-based; conditions: Enterovirus; HeLa Cells; inhibiting virus plaque formation by 50%
rhinovirus 32 [6] = assay: Clinical challenge study, virus isolation from nasal washings; assay type: in vivo, human; conditions: individual subjects on medication, intranasal; + or 0
Poliovirus Type 1 = assay: microbe, parasite or virus in culture; assay type: cell-based; conditions: Enterovirus C, HeLa, read-out: Minimal Inhibitory Concentration

Structure (SMILES): N=C(Nc1ccccc1)Nc1nc(-c2ccccc2)cs1 [1-(4-phenyl-2-thiazolyl)-3-phenylguanidine]
- IC50 (Coxsackievirus B-1): 1.6 to 3.1 µg/mL (≈ 5.44 to 10.5 µM)
- Clinical Symptom Scores (rhinovirus 32 [1]; individual subjects on medication (No. 3, 4, 6, 7, 9, 10, 13, 14, 17, 20, in order of lines), signs and symptoms scaled 0 not present to +3 severe): 0 and 11 and 2 and 4 and 3 and 5 and 6 and 1
- protection of humans from rhinovirus type 32 infection (rhinovirus 32 [1]): effective in protecting humans from rhinovirus type 32 infection
- volunteers who did not develop rhinovirus infection from challenge (rhinovirus 32 [1]; rhinovirus type 32 challenge, placebo 4 of 10): 9 of 10
- IC50 (Coxsackievirus A-5): 0.4 µg/mL (≈ 1.36 µM)
- IC50 (Rhinovirus Serotype 20): 0.4 µg/mL (≈ 1.36 µM)
- IC50 (Rhinovirus Serotype 39): 0.4 µg/mL (≈ 1.36 µM)
- IC50 (Rhinovirus Serotype 23; L132, L-132 Cells): 0.4 to 0.8 µg/mL (≈ 1.36 to 2.72 µM)
- IC50 (Rhinovirus Serotype 23; HeLa Cells): 0.2 to 0.4 µg/mL (≈ 0.679 to 1.36 µM)
- inhibition of rhinovirus serotype (zone of 10 mm or more) (Rhinovirus Type 45): inhibited
- inhibition of rhinovirus serotype (zone of 10 mm or more) (Rhinovirus Type 13): inhibited
- inhibition of rhinovirus serotype (zone of 10 mm or more) (Rhinovirus Type 12): inhibited
- IC50 (Coxsackievirus A-22): 1.6 to 3.1 µg/mL (≈ 5.44 to 10.5 µM)
- IC50 (Coxsackievirus A-21): 1.6 to 3.1 µg/mL (≈ 5.44 to 10.5 µM)
- IC50 (Rhinovirus Serotype 12): 0.2 to 0.4 µg/mL (≈ 0.679 to 1.36 µM)
- IC50 (Rhinovirus Serotype 14): 0.8 to 1.6 µg/mL (≈ 2.72 to 5.44 µM)
- IC50 (Coxsackievirus B-2): 0.8 to 1.6 µg/mL (≈ 2.72 to 5.44 µM)
- inhibition of virus growth ([2]; by inhibitory effects on virus plaque formation and virus yield): concentration-related inhibition
- activity against rhinoviruses and other picornaviruses ([2]; human cell cultures): active against a broad spectrum of rhinoviruses and other picornaviruses
- antibody response of the treated subject who became clinically infected (rhinovirus 32 [3]): no antibody response
- IC50 (Coxsackievirus A-15): 1.6 to 3.1 µg/mL (≈ 5.44 to 10.5 µM)
- IC50 (Rhinovirus Serotype 52): 0.4 µg/mL (≈ 1.36 µM)
- Protection of tissue from destruction by virus (Rhinovirus strain 23): +
- suppression of virus yield (Rhinovirus Serotype 1B [4]; 24 hours, cultures treated with 0.4 to 0.8 mcg/ml): 1-2 logs
- Virus yield (Rhinovirus Serotype 1B [4]; 0.4 mcg/ml, 0 Hour to +6 Hour, 24 Hours, no drug 7.0): 5.2 Plaque-Forming Units/ml. (Log
- Virus yield (Rhinovirus Serotype 1B [4]; 0.4 mcg/ml, 0 Hour to +6 Hour, 48 Hours, no drug 7.0): 5.8 Plaque-Forming Units/ml. (Log
- Virus yield (Rhinovirus Serotype 1B [4]; 0.4 mcg/ml, +1 Hour to +7 Hour, 24 Hours, no drug 7.0): 6.4 Plaque-Forming Units/ml. (Log
- Virus yield (Rhinovirus Serotype 1B [4]; 0.4 mcg/ml, +1 Hour to +7 Hour, 48 Hours, no drug 7.2): 7.1 Plaque-Forming Units/ml. (Log
- Virus yield (Rhinovirus Serotype 1B [4]; 0.8 mcg/ml, 0 Hour to +6 Hour, 24 Hours, no drug 7.0): 5.7 Plaque-Forming Units/ml. (Log
- Virus yield (Rhinovirus Serotype 1B [4]; 0.8 mcg/ml, 0 Hour to +6 Hour, 48 Hours, no drug 7.0): 6.3 Plaque-Forming Units/ml. (Log
- Virus yield (Rhinovirus Serotype 1B [4]; 0.8 mcg/ml, +1 Hour to +7 Hour, 24 Hours, no drug 7.0): 6.0 Plaque-Forming Units/ml. (Log
- Virus yield (Rhinovirus Serotype 1B [4]; 0.8 mcg/ml, +1 Hour to +7 Hour, 48 Hours, no drug 7.2): 7.4 Plaque-Forming Units/ml. (Log
- Virus yield (Rhinovirus Serotype 1B [4]; 1.6 mcg/ml, 0 Hour to +6 Hour, 24 Hours, no drug 7.0): 5.5 Plaque-Forming Units/ml. (Log
- Virus yield (Rhinovirus Serotype 1B [4]; 1.6 mcg/ml, 0 Hour to +6 Hour, 48 Hours, no drug 7.0): 6.2 Plaque-Forming Units/ml. (Log
- Virus yield (Rhinovirus Serotype 1B [4]; 1.6 mcg/ml, +1 Hour to +7 Hour, 24 Hours, no drug 7.0): 5.4 Plaque-Forming Units/ml. (Log
- Virus yield (Rhinovirus Serotype 1B [4]; 1.6 mcg/ml, +1 Hour to +7 Hour, 48 Hours, no drug 7.2): 6.6 Plaque-Forming Units/ml. (Log
- Virus yield (Rhinovirus Serotype 1B [4]; 3.1 mcg/ml, 0 Hour to +6 Hour, 24 Hours, no drug 7.0): 5.5 Plaque-Forming Units/ml. (Log
- Virus yield (Rhinovirus Serotype 1B [4]; 3.1 mcg/ml, 0 Hour to +6 Hour, 48 Hours, no drug 7.0): 6.1 Plaque-Forming Units/ml. (Log
- Virus yield (Rhinovirus Serotype 1B [4]; 3.1 mcg/ml, +1 Hour to +7 Hour, 24 Hours, no drug 7.0): 4.7 Plaque-Forming Units/ml. (Log
- Virus yield (Rhinovirus Serotype 1B [4]; 3.1 mcg/ml, +1 Hour to +7 Hour, 48 Hours, no drug 7.2): 6.3 Plaque-Forming Units/ml. (Log
- Virus yield (Rhinovirus Serotype 1B [4]; 6.2 mcg/ml, 0 Hour to +6 Hour, 24 Hours, no drug 7.0): 5.8 Plaque-Forming Units/ml. (Log
- Virus yield (Rhinovirus Serotype 1B [4]; 6.2 mcg/ml, 0 Hour to +6 Hour, 48 Hours, no drug 7.0): 6.1 Plaque-Forming Units/ml. (Log
- Virus yield (Rhinovirus Serotype 1B [4]; 6.2 mcg/ml, +1 Hour to +7 Hour, 24 Hours, no drug 7.0): 4.5 Plaque-Forming Units/ml. (Log
- Virus yield (Rhinovirus Serotype 1B [4]; 6.2 mcg/ml, +1 Hour to +7 Hour, 48 Hours, no drug 7.2): 5.6 Plaque-Forming Units/ml. (Log
- Virus yield (Rhinovirus Serotype 1B [4]; 12.5 mcg/ml, +1 Hour to +7 Hour, 24 Hours, no drug 7.0): 3.8 Plaque-Forming Units/ml. (Log
- Virus yield (Rhinovirus Serotype 1B [4]; 12.5 mcg/ml, +1 Hour to +7 Hour, 48 Hours, no drug 7.2): 5.2 Plaque-Forming Units/ml. (Log
- IC50 (Coxsackievirus B-5): 0.8 to 1.6 µg/mL (≈ 2.72 to 5.44 µM)
- Protection of tissue from destruction by virus (Rhinovirus strain 5): +
- Protection of tissue from destruction by virus (Rhinovirus strain 2): +
- IC50 (Rhinovirus Serotype 3): 0.4 to 0.8 µg/mL (≈ 1.36 to 2.72 µM)
- activity against rhinoviruses in three human epithelial cell lines (rhinoviruses): equally active
- IC50 (Coxsackievirus A-11): 1.6 to 3.1 µg/mL (≈ 5.44 to 10.5 µM)
- IC50 (Rhinovirus Serotype 1B [5]; L132, L-132 Cells): 0.8 µg/mL (≈ 2.72 µM)
- IC50 (Rhinovirus Serotype 1B [5]; HeLa Cells): 0.8 to 1.6 µg/mL (≈ 2.72 to 5.44 µM)
- IC50 (Rhinovirus Serotype 1A): 0.2 to 0.4 µg/mL (≈ 0.679 to 1.36 µM)
- Virus Isolation From Nasal Washings (rhinovirus 32 [6]): 0
- IC50 (Poliovirus Type 1): 0.8 µg/mL (≈ 2.72 µM)
